biological target: G12C K-Ras4B (1-169) (Homo sapiens (Human), UniProt P01116, G12C); assay: Test of compounds on whether to bind to KRASG12C (LC-MS compound binding rate); conditions: final compound concentration of 2 μM, 1 μM protein, 25° C. for 2 hours
Procedure, shortened: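 K-Ras4B (1-169) WT and G12C (1 μM each, mixed) in 1×TBS, 0.1 mM TCEP incubated with compound (final 2 μM) 2 h at 25° C; quenched with 0.2% formic acid. Intact-protein LC-MS (ESI+, deconvoluted); binding rate = adduct signal/(adduct + unbound signal), giving selectivity over WT.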

Structure (SMILES)	binding rate for G12C K-Ras4B (1-169)
C=CC(=O)N1CC(NC(=O)c2c(Cl)nc(CNc3n[nH]c4cc(Cl)c(C(C)(C)C)cc34)n2CCOC)C1 [Example 90, N-(1-acryloylazetidin-3-yl)-2-(((5-(tert-butyl)-6-chloro-1H-indazol-3-yl)amino)methyl)-4-chloro-1-(2-methoxyethyl)-1H-imidazole-5-carboxamide]	A (a binding rate of 80% or more is rated “A,”)
C=CC(=O)N1CC(NC(=O)c2c(C(F)F)nc(CNc3n[nH]c4cc(Cl)c(C(C)(C)C)cc34)n2C2CCN(C)C2)C1 (stereo not shown) [Example 91, N-(1-acryloylazetidin-3-yl)-2-(((5-(tert-butyl)-6-chloro-1H-indazol-3-yl)amino)methyl)-4-(difluoromethyl)-1-(1-methylpyrrolidin-3-yl)-1H-imidazole-5-carboxamide]	A (a binding rate of 80% or more is rated “A,”)
C=CC(=O)N1CC(NC(=O)c2c(C(F)F)nc(CNc3n[nH]c4cc(Cl)c(C(C)(C)C)cc34)n2C2CCN(CC)C2)C1 (stereo not shown) [Example 92, N-(1-acryloylazetidin-3-yl)-2-(((5-(tert-butyl)-6-chloro-1H-indazol-3-yl)amino)methyl)-4-(difluoromethyl)-1-(1-ethylpyrrolidin-3-yl)-1H-imidazole-5-carboxamide]	B (a binding rate of 60% or more and less than 80% is rated “B,”)
C=CC(=O)N1CC(NC(=O)c2c(Cl)nc(CNc3n[nH]c4cc(Cl)c(C(C)(C)C)cc34)n2-c2ccccn2)C1 [Example 94, N-(1-acryloylazetidin-3-yl)-2-(((5-(tert-butyl)-6-chloro-1H-indazol-3-yl)amino)methyl)-4-chloro-1-(pyridin-2-yl)-1H-imidazole-5-carboxamide]	B (a binding rate of 60% or more and less than 80% is rated “B,”)
C=CC(=O)N1CC(NC(=O)c2c(C(F)F)nc(CNc3n[nH]c4cc(Cl)c(C(C)(C)C)cc34)n2CC2CCCN2C(C)C)C1 (stereo not shown) [Example 95, N-(1-acryloylazetidin-3-yl)-2-(((5-(tert-butyl)-6-chloro-1H-indazol-3-yl)amino)methyl)-4-(difluoromethyl)-1-((1-isopropylpyrrolidine-2-yl)methyl)-1H-imidazole-5-carboxamide]	A (a binding rate of 80% or more is rated “A,”)
C=CC(=O)N1CC(NC(=O)c2c(C(F)F)nc(CNc3n[nH]c4cc(Cl)c(C(C)(C)C)cc34)n2C2CCN(C(C)=O)C2)C1 (stereo not shown) [Example 96, 1-(1-Acetylpyrrolidin-3-yl)-N-(1-acryloylazetidin-3-yl)-2-(((5-(tert-butyl)-6-chloro-1H-indazol-3-yl)amino)methyl)-4-(difluoromethyl)-1H-imidazole-5-carboxamide]	A (a binding rate of 80% or more is rated “A,”)
C=CC(=O)N1CC(NC(=O)c2c(Cl)nc(CNc3n[nH]c4cc(Cl)c(C(C)(C)C)cc34)n2C2CC=CC2)C1 [Example 98, N-(1-acryloylazetidin-3-yl)-2-(((5-(tert-butyl)-6-chloro-1H-indazol-3-yl)amino)methyl)-4-chloro-1-(cyclopent-3-en-1-yl)-1H-imidazole-5-carboxamide]	A (a binding rate of 80% or more is rated “A,”)
C=CC(=O)N1CC(NC(=O)c2c(Cl)nc(CNc3n[nH]c4cc(Cl)c(C(C)(C)C)cc34)n2[C@@H]2C[C@@H](O)[C@@H](O)C2)C1 [Example 99]	A (a binding rate of 80% or more is rated “A,”)
C=CC(=O)N1CC(NC(=O)c2c(Cl)nc(CNc3n[nH]c4cc(Cl)c(C(C)(C)C)cc34)n2CC(F)F)C1 [Example 100, N-(1-acryloylazetidin-3-yl)-2-(((5-(tert-butyl)-6-chloro-1H-indazol-3-yl)amino)methyl)-4-chloro-1-(2,2-difluoroethyl)-1H-imidazole-5-carboxamide]	A (a binding rate of 80% or more is rated “A,”)
C=CC(=O)N1CC(NC(=O)c2c(Cl)nc(CNc3n[nH]c4cc(Cl)c(C(C)(C)C)cc34)n2C2CN(C(C)=O)C2)C1 [Example 108, 1-(1-acetylazetidin-3-yl)-N-(1-acryloylazetidin-3-yl)-2-(((5-(tert-butyl)-6-chloro-1H-indazol-3-yl)amino)methyl)-4-chloro-1H-imidazole-5-carboxamide]	A (a binding rate of 80% or more is rated “A,”)
C=CC(=O)N1CC(NC(=O)c2c(Cl)nc(CNc3n[nH]c4cc(Cl)c(C(C)(C)C)cc34)n2C2CCCCC2)C1 [Example 109, N-(1-acryloylazetidin-3-yl)-2-(((5-(tert-butyl)-6-chloro-1H-indazol-3-yl)amino)methyl)-4-chloro-1-cyclohexyl-1H-imidazole-5-carboxamide]	B (a binding rate of 60% or more and less than 80% is rated “B,”)
C=CC(=O)N1CC(NC(=O)c2c(Cl)nc(CNc3n[nH]c4cc(Cl)c(C(C)(C)C)cc34)n2CC2CCCC2)C1 [Example 110, N-(1-acryloylazetidin-3-yl)-2-(((5-(tert-butyl)-6-chloro-1H-indazol-3-yl)amino)methyl)-4-chloro-1-(cyclopentylmethyl)-1H-imidazole-5-carboxamide]	A (a binding rate of 80% or more is rated “A,”)
C=CC(=O)N1CC(NC(=O)c2c(Cl)nc(CNc3n[nH]c4cc(Cl)c(C(C)(C)C)cc34)n2[C@H]2C[C@H](C)CC[C@H]2C(C)C)C1 [Example 111, N-(1-acryloylazetidin-3-yl)-2-(((5-(tert-butyl)-6-chloro-1H-indazol-3-yl)amino)methyl)-4-chloro-1-((1S,2S,5R)-2-isopropyl-5-methylcyclohexyl)-1H-imidazole-5-carboxamide]	B (a binding rate of 60% or more and less than 80% is rated “B,”)
C=CC(=O)N1CC(NC(=O)c2c(Cl)nc(CNc3n[nH]c4cc(Cl)c(C(C)(C)C)cc34)n2[C@@H]2CCN(CC(F)F)C2)C1 [Example 113, (R)—N-(1-acryloylazetidin-3-yl)-2-(((5-(tert-butyl)-6-chloro-1H-indazol-3-yl)amino)methyl)-4-chloro-1-(1-(2,2-difluoroethyl)pyrrolidin-3-yl)-1H-imidazole-5-carboxamide]	A (a binding rate of 80% or more is rated “A,”)
C=CC(=O)N1CC(NC(=O)c2c(Cl)nc(CNc3n[nH]c4cc(Cl)c(C(C)(C)C)cc34)n2[C@H]2CCN(CC(F)F)C2)C1 [Example 115, (S)—N-(1-acryloylazetidin-3-yl)-2-(((5-(tert-butyl)-6-chloro-1H-indazol-3-yl)amino)methyl)-4-chloro-1-(1-(2,2-difluoroethyl)pyrrolidin-3-yl)-1H-imidazole-5-carboxamide]	A (a binding rate of 80% or more is rated “A,”)
C=CC(=O)N1CC(NC(=O)c2c(Cl)nc(CNc3n[nH]c4cc(Cl)c(C(C)(C)C)cc34)n2[C@H]2CCN(C(C)C)C2)C1 [Example 116, (S)—N-(1-acryloylazetidin-3-yl)-2-(((5-(tert-butyl)-6-chloro-1H-indazol-3-yl)amino)methyl)-4-chloro-1-(1-isopropylpyrrolidin-3-yl)-1H-imidazole-5-carboxamide]	B (a binding rate of 60% or more and less than 80% is rated “B,”)
C=CC(=O)N1CC(NC(=O)c2c(Cl)nc(CNc3n[nH]c4cc(Cl)c(C(C)(C)C)cc34)n2C2CCCN(CC(F)F)C2)C1 (stereo not shown) [Example 117, N-(1-acryloylazetidin-3-yl)-2-(((5-(tert-butyl)-6-chloro-1H-indazol-3-yl)amino)methyl)-4-chloro-1-(1-(2,2-difluoroethyl)piperidin-3-yl)-1H-imidazole-5-carboxamide]	A (a binding rate of 80% or more is rated “A,”)
C=CC(=O)N1CC(NC(=O)c2c(Cl)nc(CNc3n[nH]c4cc(Cl)c(C(C)(C)C)cc34)n2C2CCCN(C)C2)C1 (stereo not shown) [Example 118, N-(1-acryloylazetidin-3-yl)-2-(((5-(tert-butyl)-6-chloro-1H-indazol-3-yl)amino)methyl)-4-chloro-1-(1-methylpiperidin-3-yl)-1H-imidazole-5-carboxamide]	A (a binding rate of 80% or more is rated “A,”)
C=CC(=O)N1CC(NC(=O)c2c(Cl)nc(CNc3n[nH]c4cc(Cl)c(C(C)(C)C)cc34)n2[C@@H]2CCN(CCOC)C2)C1 [Example 119, (R)—N-(1-acryloylazetidin-3-yl)-2-(((5-(tert-butyl)-6-chloro-1H-indazol-3-yl)amino)methyl)-4-chloro-1-(1-(2-methoxyethyl)pyrrolidin-3-yl)-1H-imidazole-5-carboxamide]	B (a binding rate of 60% or more and less than 80% is rated “B,”)
C=CC(=O)N1CC(NC(=O)c2c(Cl)nc(CNc3n[nH]c4cc(Cl)c(C(C)(C)C)cc34)n2[C@@H]2CCN(C3CC3)C2)C1 [Example 120, (R)—N-(1-acryloylazetidin-3-yl)-2-(((5-(tert-butyl)-6-chloro-1H-indazol-3-yl)amino)methyl)-4-chloro-1-(1-cyclopropylpyrrolidin-3-yl)-1H-imidazole-5-carboxamide]	A (a binding rate of 80% or more is rated “A,”)
C=CC(=O)N1CC(NC(=O)c2c(Cl)nc(CNc3n[nH]c4cc(Cl)c(C(C)(C)C)cc34)n2[C@@H]2CCN(C3COC3)C2)C1 [Example 121, (R)—N-(1-acryloylazetidin-3-yl)-2-(((5-(tert-butyl)-6-chloro-1H-indazol-3-yl)amino)methyl)-4-chloro-1-(1-(oxetan-3-yl)pyrrolidin-3-yl)-1H-imidazole-5-carboxamide]	A (a binding rate of 80% or more is rated “A,”)
C=CC(=O)N1CC(NC(=O)c2c(Cl)nc(CNc3n[nH]c4cc(Cl)c(C(C)(C)C)cc34)n2[C@@H]2CCN(Cc3ccccc3)C2)C1 [Example 122, (R)—N-(1-acryloylazetidin-3-yl)-1-(1-benzylpyrrolidin-3-yl)-2-(((5-(tert-butyl)-6-chloro-1H-indazol-3-yl)amino)methyl)-4-chloro-1H-imidazole-5-carboxamide]	A (a binding rate of 80% or more is rated “A,”)
